This assay relates to SMN2-linked luciferase-reporter gene construct. The experiment in a line: SMN splice reporter assay (SMN2-linked luciferase reporter, Example 10). The assay is classed as cell-based. The settings on record: for maximal fold induction: read-out: SMN Splice Reporter Assay (Example 10) Avg MaxFold Increase. Summed up:
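Values are fold-increase in luciferase signal relative to baseline cells without compound. The cervical carcinoma line used holds a fusion of alternatively spliced SMN2 sequence and luciferase. Readable frame, and thus signal, arises only with exon 7-including splicing.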
(In general: A reporter such as luciferase makes a cellular process visible.)

Where [1] appears, read: SMN2-linked luciferase reporter, average.
Setting [2] is: maximum fold increase of reporter signal, average.
[3] abbreviates: SMN2-linked luciferase reporter, average maximum fold increase.

pEC50: −log10 of the molar value. Like-named read-outs stand apart in the source and are kept apart here.

In the case of `CC(C(=O)O)c1ccc(N2Cc3cc4ccsc4cc3C2=O)cc1` (centres unmarked) [ALB-112228], the pEC50 (as a rule, the negative decadic logarithm of the EC50, by convention in mol/L) under setting [1] was 6.17. Under setting [2], the maximal fold induction worked out at 1.27.
Take `COCCc1ccc(N2Cc3ccccc3C2=O)cc1` [ALB-115073]: the maximal fold induction under setting [2] is 1.19.
Consider `CCOCc1ccc2c(c1)C(=O)N(c1ccc(C(C)CO)cc1)C2` (centres unmarked) [ALB-114743], for which the pEC50 under setting [1] is 6.35. Also, under setting [2], the maximal fold induction was found to be 1.37.
`CC(C(=O)OC(C)(C)C)c1ccc(N2Cc3ccccc3C2=O)cc1` (centres unmarked) [ALB-111730] had a pEC50 under setting [1] of 5.78. The “SMN Splice Reporter Assay (Example 10) Avg MaxFold Increase” value under setting [2] is listed as 1.267.
For the compound `CC(C)c1ccc(N2Cc3cc(O)ccc3C2=O)cc1` [ALB-118277], the pEC50 under setting [1] was 7.57. Moreover, under setting [3], the maximal fold induction was determined as 1.15.
Turning to `CC(C(=O)O)c1ccc(N2Cc3cc(N4CCOCC4)ccc3C2=O)cc1` (centres unmarked) [ALB-112554], the maximal fold induction under setting [2] was determined as 1.06.
The same measure, in the same setting: the result for `CC(C(=O)O)c1ccc(N2Cc3c(cccc3-c3ccccc3)C2=O)cc1` (centres unmarked) [ALB-112220] reads 1.22.
As for `C/C=C/c1ccc2c(c1)C(=O)N(c1ccc(C(C)C(=O)O)cc1)C2` (centres unmarked) [ALB-114086], the pEC50 under setting [1] was 7.06. For the same compound, the maximal fold induction under setting [2] worked out at 1.99.
Under setting [1], `CC(C(=O)OC(C)(C)C)c1ccc(N2Cc3cccc(N)c3C2=O)cc1` (centres unmarked) [ALB-112061] showed a pEC50 of 5.43. Besides, under setting [2], the maximal fold induction was 1.27.
Under setting [1], `CC(C(=O)O)c1ccc(N2Cc3ccc(OC(F)F)cc3C2=O)cc1` (centres unmarked) [ALB-119335] had a pEC50 of 7.29. Moreover, the maximal fold induction under setting [3] amounted to 1.54.
On to `CC(C(=O)OC(C)(C)C)c1ccc(N2Cc3cccc(-c4ccc(Cl)cc4)c3C2=O)cc1` (centres unmarked) [ALB-112153], for which the maximal fold induction under setting [2] turned out to be 1.02.
Turning to `CC(C)c1ccc(N2Cc3cccc(N(C)C)c3C2=O)cc1` [ALB-117904], the pEC50 under setting [1] is 5.36. For the same compound, the maximal fold induction under setting [2] stood at 1.46.
Turning to `CC(C(=O)OC(C)(C)C)c1ccc(N2Cc3c(cccc3-c3cncnc3)C2=O)cc1` (centres unmarked) [ALB-112349], under setting [2], the maximal fold induction was determined as 1.06.
As to `CC(C(=O)OC(C)(C)C)c1ccc(N2Cc3ccc(Nc4ccc(Cl)cc4)cc3C2=O)cc1` (centres unmarked) [ALB-112166], the maximal fold induction under setting [2] was found to be 1.04.
Under setting [1], `CCc1ccc(N2Cc3ccc(OC)cc3C2=O)cc1` [ALB-115085] showed a negative-log EC50 (pEC50) of 7.24. In addition, the maximal fold induction under setting [2] was 1.47.
`Cc1ccc(-c2ccc3c(c2)CN(c2ccc(C(C)C(=O)O)cc2)C3=O)cc1` (centres unmarked) [ALB-111891] gave a negative-log EC50 (pEC50) under setting [1] of 5.05. The maximal fold induction under setting [2] is 1.31.
The like results for `CC(C(=O)O)c1ccc(N2Cc3ccc(-c4ccccc4)cc3C2=O)cc1` (centres unmarked) [ALB-112446] were, in that order, 5.77 and 1.45.
As for `CC(C)c1ccc(N2Cc3ccc(N)cc3C2=O)cc1` [ALB-115805], the pEC50 under setting [1] was 7.00. Besides, under setting [2], the maximal fold induction was 1.42.
In turn, `COc1ccc2c(c1)C(=O)N(c1ccc(C3CC3)cc1)C2` [ALB-115803] showed a negative-log EC50 (pEC50) under setting [1] of 7.82. Besides, the maximal fold induction under setting [3] was 1.26.
Turning to `COCc1ccc(N2Cc3ccc(OC)cc3C2=O)cc1` [ALB-116067], under setting [2], the maximal fold induction came out at 1.24.
As for `CNC(=O)Nc1ccc2c(c1)C(=O)N(c1ccc(C(C)C)cc1)C2` [ALB-118558], the pEC50 under setting [1] is 6.06. For the same compound, under setting [3], the maximal fold induction was determined as 1.58.
As to `Cc1ccc(-c2ccc3c(c2)C(=O)N(c2ccc(C(C)C(=O)OC(C)(C)C)cc2)C3)cc1` (centres unmarked) [ALB-112442], under setting [2], the maximal fold induction was 1.11.
Turning to `CC(C(=O)O)c1ccc(N2Cc3ccc(C4CC4)cc3C2=O)cc1` (centres unmarked) [ALB-115716], the pEC50 under setting [1] is 7.54. For the same compound, the maximal fold induction under setting [2] was 1.59.
Take `CC(C(=O)O)c1ccc(N2Cc3ccc(NC(=O)c4ccc(Cl)cc4)cc3C2=O)cc1` (centres unmarked) [ALB-111983]: the maximal fold induction under setting [2] came to 1.06.
As for `CCN(C)C(=O)Nc1ccc2c(c1)C(=O)N(c1ccc(C(C)C)cc1)C2` [ALB-118732], the maximal fold induction under setting [3] was found to be 1.15.
As for `CC(C(=O)O)c1ccc(N2Cc3cccc(C#N)c3C2=O)cc1` (centres unmarked) [ALB-112518], the maximal fold induction under setting [2] worked out at 1.12.
Take `COc1cccc2c1C(=O)N(c1ccc(C(C)C(=O)OC(C)(C)C)cc1)C2` (centres unmarked) [ALB-111955]: the pEC50 under setting [1] is 6.40. For the same compound, under setting [2], the maximal fold induction came to 1.08.
For `CC(C)c1ccc2c(c1)C(=O)N(c1ccc(C(C)C(=O)O)cc1)C2` (centres unmarked) [ALB-113563], in that order: 7.26 and 1.8.
For `COCc1ccc2c(c1)C(=O)N(c1ccc(C(C)COC)cc1)C2` (centres unmarked) [ALB-114942], in that order: 6.66 and 1.33.
With `CC(C(=O)OC(C)(C)C)c1ccc(N2Cc3c(cccc3-c3ccccc3)C2=O)cc1` (centres unmarked) [ALB-112187], the maximal fold induction under setting [2] amounted to 1.07.
For `CCCN(C)C(=O)Nc1ccc2c(c1)C(=O)N(c1ccc(C(C)C)cc1)C2` [ALB-118898], the maximal fold induction under setting [3] was 1.06.
For `CC(C(=O)O)c1ccc(N2Cc3cc(C#N)ccc3C2=O)cc1` (centres unmarked) [ALB-112477], under setting [1], the pEC50 was 5.16. In addition, the maximal fold induction under setting [2] was 1.18.
Take `CC(C(=O)OC(C)(C)C)c1ccc(N2Cc3ccccc3C2=O)cc1-c1ccc(Cl)c(Cl)c1` (centres unmarked) [ALB-111963]: the maximal fold induction under setting [2] was found to be 1.02.
On to `CC(C(=O)O)c1ccc(N2Cc3cc(-c4cncnc4)ccc3C2=O)cc1` (centres unmarked) [ALB-111994], for which the negative logarithm of the EC50 (pEC50) under setting [1] is 5.38. Under setting [2], the maximal fold induction is 1.38.
Under setting [1], `CC(C)Oc1cccc2c1C(=O)N(c1ccc(C(C)C(=O)O)cc1)C2` (centres unmarked) [ALB-113392] had a pEC50 of 5.31. Further, the maximal fold induction under setting [2] is 1.65.
In the case of `CC(C(=O)O)c1ccc(N2Cc3ccc(-c4cccnc4)cc3C2=O)cc1` (centres unmarked) [ALB-112514], under setting [2], the maximal fold induction came to 1.25.
`CC(C(=O)O)c1ccc(N2Cc3c(cccc3-c3cncnc3)C2=O)cc1` (centres unmarked) [ALB-112353] showed a pEC50 under setting [1] of 4.80. Also, the maximal fold induction under setting [2] was found to be 1.53.
For `CC(C(=O)O)c1ccc(N2Cc3c(Br)cccc3C2=O)cc1` (centres unmarked) [ALB-112066], in that order: 4.66 and 1.12.
For `CCOc1cccc2c1C(=O)N(c1ccc(C(C)C)cc1)C2` [ALB-118278], in that order: 5.86 and 1.5.
For `CC(C(=O)O)c1ccc(N2Cc3ccc(-c4cccs4)cc3C2=O)cc1` (centres unmarked) [ALB-112515], in that order: 6.31 and 1.62.
Compound `CC(C(=O)OC(C)(C)C)c1ccc(N2Cc3ccccc3C2=O)cc1C#N` (centres unmarked) [ALB-112435] had a pEC50 under setting [1] of 5.22. Moreover, the maximal fold induction under setting [2] is 1.2.
The like results for `CC(C(=O)OC(C)(C)C)c1ccc(N2Cc3ccc(N)cc3C2=O)cc1` (centres unmarked) [ALB-111745] were, in that order, 5.67 and 1.17.
For `Cc1ccc2c(c1)C(=O)N(c1ccc(C(C)(C)C)cc1)C2` [ALB-116068], in that order: 7.29 and 1.35.
As to `COc1ccc(-c2cc(C(C)C(=O)O)ccc2N2Cc3ccccc3C2=O)cc1` (centres unmarked) [ALB-112086], the maximal fold induction under setting [2] is 1.08.
Regarding `COc1ccc2c(c1OC)C(=O)N(c1ccc(C(C)C)cc1)C2` [ALB-118036], under setting [1], the pEC50 was 5.57. In addition, under setting [2], the maximal fold induction amounted to 1.29.
For `CCC(C)c1ccc2c(c1)C(=O)N(c1ccc(C(C)C(=O)O)cc1)C2` (centres unmarked) [ALB-114088], in that order: 7.11 and 2.19.
The like results for `CNc1cccc2c1C(=O)N(c1ccc(C(C)C)cc1)C2` [ALB-117905] were, in that order, 6.38 and 1.55.
For `CC(C(=O)O)c1ccc(N2Cc3cccc(OC4CCCC4)c3C2=O)cc1` (centres unmarked) [ALB-113566], in that order: 5.29 and 1.96.
`CC(C)c1ccc(N2Cc3cc(Br)ccc3C2=O)cc1` [ALB-115810] showed a pEC50 under setting [1] of 6.84. Further, the maximal fold induction under setting [2] amounted to 1.44.
On to `CC(C(=O)OC(C)(C)C)c1ccc(N2Cc3ccc(-c4ccc(Cl)cc4)cc3C2=O)cc1` (centres unmarked) [ALB-112443], for which the maximal fold induction under setting [2] worked out at 1.07.
In turn, `CC(C)c1ccc(N2Cc3cccc(I)c3C2=O)cc1` [ALB-117753] had a pEC50 under setting [1] of 6.74. Moreover, the maximal fold induction under setting [2] came to 1.6.
`Cc1cccc2c1C(=O)N(c1ccc(C(C)C(=O)O)cc1)C2` (centres unmarked) [ALB-112557]: the negative logarithm of the EC50 (pEC50) under setting [1] is 6.54. Further, the maximal fold induction under setting [2] came to 1.73.
`COCC(C)c1ccc(N2Cc3ccc(C)cc3C2=O)cc1` (centres unmarked) [ALB-115072] had a pEC50 under setting [1] of 7.49. Further, the “SMN Splice Reporter Assay (Example 10) Avg MaxFold Increase” value under setting [2] is reported as 1.28.
For the compound `CC(C(=O)OC(C)(C)C)c1ccc(N2Cc3ccccc3C2=O)cc1-c1cncnc1` (centres unmarked) [ALB-112195], the maximal fold induction under setting [2] was found to be 1.06.
Take `CC(C)c1ccc(N2Cc3ccc(O)c(O)c3C2=O)cc1` [ALB-117903]: the maximal fold induction under setting [3] worked out at 1.07.
In the case of `CC(C(=O)O)c1ccc(N2Cc3cc4c(cc3C2=O)OCO4)cc1` (centres unmarked) [ALB-114782], the pEC50 under setting [1] is 7.09. The maximal fold induction under setting [2] turned out to be 1.65.
Consider `CNc1ccc2c(c1)C(=O)N(c1ccc(C(C)C(=O)OC(C)(C)C)cc1)C2` (centres unmarked) [ALB-112170], for which the pEC50 under setting [1] is 5.98. In addition, under setting [2], the maximal fold induction was determined as 1.27.
As for `CC(C(=O)OC(C)(C)C)c1ccc(N2Cc3ccc(-c4ccccc4)cc3C2=O)cc1` (centres unmarked) [ALB-112441], under setting [2], the maximal fold induction worked out at 1.08.
`CC(C(=O)O)c1ccc(N2Cc3ccc(C4CCCC4)cc3C2=O)cc1` (centres unmarked) [ALB-114607]: under setting [1], the pEC50 is 7.46. The maximal fold induction under setting [2] worked out at 1.51.
As to `Cc1cc(C(C)C(=O)O)ccc1N1Cc2ccccc2C1=O` (centres unmarked) [ALB-112487], the maximal fold induction under setting [2] came to 1.17.
Under setting [1], `CC(C(=O)NS(=O)(=O)N(C)C)c1ccc(N2Cc3ccccc3C2=O)cc1` (centres unmarked) [ALB-111749] showed a pEC50 of 4.85. The maximal fold induction under setting [2] came to 1.16.
On to `CC(C(=O)N1CCOCC1)c1ccc(N2Cc3ccccc3C2=O)cc1` (centres unmarked) [ALB-112077], for which the maximal fold induction under setting [2] is 1.09.
Compound `O=C1c2ccccc2CN1c1ccc(C2CCCCC2)cc1` [ALB-115423] showed a negative-log EC50 (pEC50) under setting [1] of 7.54. For the same compound, the maximal fold induction under setting [2] was 1.21.
